Reference: patent publication US20230085307A1, “PYRIDAZINONE COMPOUND AND HERBICIDE” (NISSAN CHEMICAL CORPORATION, priority 2019, published 2023)

Key:
[1] = test system: rice flat sedge; experiment: Test Example 3: herbicidal effect by foliage application, Wagner pot (Table 18, symbol E); type: in vivo, rice flat sedge (Cyperus iria); conditions: 320 g/ha
Procedure, shortened: (§1)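 Plants were sown in alluvial soil held under 0.1–0.5 cm standing water and grown 14 days in a greenhouse at 25–30 °C. An emulsifiable formulation, water-diluted to the set dose, was then sprayed onto the foliage, and effects were scored three weeks later using previously defined criteria.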

[2] = test system: lambsquarters; experiment: Test Example 5: herbicidal effect by foliage application, plastic box (Table 20, symbol O); type: in vivo, lambsquarters (Chenopodium album); conditions: 320 g/ha, foliage application after 14-day growth, evaluated three weeks after application
Procedure, shortened: (§2)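 Sow seeds spot-wise in sterilized diluvial soil; cover with ~1.5 cm soil. Grow 14 days in greenhouse, 25° C. to 30° C. Spray foliage with emulsion diluted to predetermined amount. Rate effect after 3 weeks.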

[3] = test system: chickweed; experiment: Test Example 5: herbicidal effect by foliage application, plastic box (Table 20, symbol P); type: in vivo, common chickweed (Stellaria media); conditions: 320 g/ha, foliage application after 14-day growth, evaluated three weeks after application
Procedure, shortened: as §2

[4] = test system: southern crabgrass; experiment: Test Example 5: herbicidal effect by foliage application, plastic box (Table 20, symbol F); type: in vivo, southern crabgrass (Digitaria ciliaris); conditions: 320 g/ha, foliage application after 14-day growth, evaluated three weeks after application
Procedure, shortened: as §2

[5] = test system: barnyard grass; experiment: Test Example 3: herbicidal effect by foliage application, Wagner pot (Table 18, symbol H); type: in vivo, barnyard grass (Echinochloa crus-galli); conditions: 320 g/ha
Procedure, shortened: as §1

[6] = test system: blackgrass; experiment: Test Example 5: herbicidal effect by foliage application, plastic box (Table 20, symbol J); type: in vivo, blackgrass (Alopecurus myosuroides); conditions: 320 g/ha, foliage application after 14-day growth, evaluated three weeks after application
Procedure, shortened: as §2

[7] = test system: Italian ryegrass; experiment: Test Example 5: herbicidal effect by foliage application, plastic box (Table 20, symbol K); type: in vivo, Italian ryegrass (Lolium multiflorum); conditions: 320 g/ha, foliage application after 14-day growth, evaluated three weeks after application
Procedure, shortened: as §2

[8] = test system: barnyard grass; experiment: Test Example 5: herbicidal effect by foliage application, plastic box (Table 20, symbol H); type: in vivo, barnyard grass (Echinochloa crus-galli); conditions: 320 g/ha, foliage application after 14-day growth, evaluated three weeks after application
Procedure, shortened: as §2

[9] = test system: redroot pigweed; experiment: Test Example 5: herbicidal effect by foliage application, plastic box (Table 20, symbol N); type: in vivo, redroot pigweed (Amaranthus retroflexus); conditions: 320 g/ha, foliage application after 14-day growth, evaluated three weeks after application
Procedure, shortened: as §2

[10] = test system: green foxtail; experiment: Test Example 5: herbicidal effect by foliage application, plastic box (Table 20, symbol G); type: in vivo, green foxtail (Setaria viridis); conditions: 320 g/ha, foliage application after 14-day growth, evaluated three weeks after application
Procedure, shortened: as §2

[11] = test system: Chinese sprangletop; experiment: Test Example 3: herbicidal effect by foliage application, Wagner pot (Table 18, symbol D); type: in vivo, chinese sprangletop (Leptochloa chinensis); conditions: 320 g/ha
Procedure, shortened: as §1

[12] = test system: velvetleaf; experiment: Test Example 5: herbicidal effect by foliage application, plastic box (Table 20, symbol M); type: in vivo, velvetleaf (Abutilon theophrasti); conditions: 320 g/ha, foliage application after 14-day growth, evaluated three weeks after application
Procedure, shortened: as §2

[13] = test system: wild oat; experiment: Test Example 5: herbicidal effect by foliage application, plastic box (Table 20, symbol I); type: in vivo, wild oat (Avena fatua); conditions: 320 g/ha, foliage application after 14-day growth, evaluated three weeks after application
Procedure, shortened: as §2

[14] = test system: persian speedwell; experiment: Test Example 5: herbicidal effect by foliage application, plastic box (Table 20, symbol R); type: in vivo, Persian speedwell (Veronica persica); conditions: 320 g/ha, foliage application after 14-day growth, evaluated three weeks after application
Procedure, shortened: as §2

[15] = test system: windgrass; experiment: Test Example 5: herbicidal effect by foliage application, plastic box (Table 20, symbol L); type: in vivo, windgrass (Apera spica-venti); conditions: 320 g/ha, foliage application after 14-day growth, evaluated three weeks after application
Procedure, shortened: as §2

SMILES | herbicidal effect on rice flat sedge (E) [1] | herbicidal effect on O: lambsquarters (evaluation grade 0-5) [2] | herbicidal effect on P: chickweed (evaluation grade 0-5) [3] | herbicidal effect on F: southern crabgrass (evaluation grade 0-5) [4] | herbicidal effect on barnyard grass (H) [5] | herbicidal effect on J: blackgrass (evaluation grade 0-5) [6] | herbicidal effect on K: Italian ryegrass (evaluation grade 0-5) [7] | herbicidal effect on H: barnyard grass (evaluation grade 0-5) [8] | herbicidal effect on N: redroot pigweed (evaluation grade 0-5) [9] | herbicidal effect on G: green foxtail (evaluation grade 0-5) [10] | herbicidal effect on Chinese sprangletop (D) [11] | herbicidal effect on M: velvetleaf (evaluation grade 0-5) [12] | herbicidal effect on I: wild oat (evaluation grade 0-5) [13] | herbicidal effect on R: persian speedwell (evaluation grade 0-5) [14] | herbicidal effect on L: windgrass (evaluation grade 0-5) [15]
C#CCOc1c(C)nn(C)c(=O)c1-c1c(-c2ccccc2OC)sc2cc(OC)ccc12 [3-154] | 3 (Herbicidal rate of 40% or more and less than 70%) | 3 (Herbicidal rate of 40% or more and less than 70%) | 5 (Herbicidal rate of 90% or more (almost completely withered)) | 0 (Herbicidal rate of 5% or less (almost no effect)) | 3 (Herbicidal rate of 40% or more and less than 70%) | 0 (Herbicidal rate of 5% or less (almost no effect)) | 0 (Herbicidal rate of 5% or less (almost no effect)) | 3 (Herbicidal rate of 40% or more and less than 70%) | 4 (Herbicidal rate of 70% or more and less than 90%) | 3 (Herbicidal rate of 40% or more and less than 70%) | 2 (Herbicidal rate of 20% or more and less than 40%) | 0 (Herbicidal rate of 5% or less (almost no effect)) | 0 (Herbicidal rate of 5% or less (almost no effect)) | 3 (Herbicidal rate of 40% or more and less than 70%) | 0 (Herbicidal rate of 5% or less (almost no effect))
Cc1nn(C)c(=O)c(-c2c(-c3ccc(C(F)(F)F)cc3)sc3c(Cl)cccc23)c1O [4-029] | 0 (Herbicidal rate of 5% or less (almost no effect)) | 3 (Herbicidal rate of 40% or more and less than 70%) | 5 (Herbicidal rate of 90% or more (almost completely withered)) | 0 (Herbicidal rate of 5% or less (almost no effect)) | 3 (Herbicidal rate of 40% or more and less than 70%) | 0 (Herbicidal rate of 5% or less (almost no effect)) | 0 (Herbicidal rate of 5% or less (almost no effect)) | 0 (Herbicidal rate of 5% or less (almost no effect)) | 0 (Herbicidal rate of 5% or less (almost no effect)) | 0 (Herbicidal rate of 5% or less (almost no effect)) | 0 (Herbicidal rate of 5% or less (almost no effect)) | 0 (Herbicidal rate of 5% or less (almost no effect)) | 0 (Herbicidal rate of 5% or less (almost no effect)) | 0 (Herbicidal rate of 5% or less (almost no effect)) | 4 (Herbicidal rate of 70% or more and less than 90%)
